Test results: PMC3741380, “The N-Terminally Truncated µ3 and µ3-Like Opioid Receptors Are Transcribed from a Novel Promoter Upstream of Exon 2 in the Human OPRM1 Gene” (PLoS ONE, 2013)

Target: T1, hMOR-1 (Homo sapiens, UniProt P35372)
T1 construct: gene OPRM1; classical 7TM splice variant, C-terminal GFP fusion kept (pcDNA3-GFP), stably expressed in HEK 293 cells
Test: cell-based
Text: inhibition of forskolin-stimulated cAMP accumulation, [3H]-cAMP competition assay on hMOR-1

T1 sequence (P35372 whole entry, the tested form may be a part, canonical isoform): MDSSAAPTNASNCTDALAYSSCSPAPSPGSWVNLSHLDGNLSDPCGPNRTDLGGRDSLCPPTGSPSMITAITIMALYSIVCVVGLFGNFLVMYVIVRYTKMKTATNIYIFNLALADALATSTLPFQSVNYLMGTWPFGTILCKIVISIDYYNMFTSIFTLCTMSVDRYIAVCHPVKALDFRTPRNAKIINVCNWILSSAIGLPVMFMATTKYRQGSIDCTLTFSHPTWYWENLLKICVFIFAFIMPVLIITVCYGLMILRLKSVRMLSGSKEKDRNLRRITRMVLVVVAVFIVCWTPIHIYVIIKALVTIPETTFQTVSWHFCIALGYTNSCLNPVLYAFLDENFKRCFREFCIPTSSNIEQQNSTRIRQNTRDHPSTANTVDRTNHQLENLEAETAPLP

`CN1CC[C@]23c4c5ccc(O)c4O[C@H]2[C@@H](O[C@@H]2O[C@H](C(=O)O)[C@@H](O)[C@H](O)[C@H]2O)C=C[C@H]3[C@H]1C5` [M6G] showed an IC50 of 27.3 ± 11.2 nM.
